Values quoted from earlier work as cited in EP4640075A1, “ORAL POUCHED PRODUCT WITH SELF-EMULSIFYING DELIVERY SYSTEM” (Nicoventures Trading Limited, priority 2024, dated 2025).

Settings: Values obtained from PubChem or calculated

tocopherol succinate
log(P)*: 10.2
